Laboratory results published in patent US20240116922A1, “IMIDAZO[1,2-A]PYRIDINE DERIVATIVES AS IRAK4 INHIBITORS AND THEIR USE IN THE TREATMENT OF DISEASE” (BIOGEN MA INC., priority 2020, published 2024).
Converted amounts (≈) assume the structure as drawn.

Columns and labels:
IRAK4 = IRAK4 (Homo sapiens (Human), UniProt Q9NWZ3); experiment: IRAK4 MSD biochemical assay (2-hour 1 mM ATP); details: 0.1 nM IRAK4, 1 mM ATP, 2 hour at room temperature
MDR1 = MDR1 (Homo sapiens (Human), UniProt P08183); experiment: in vitro; details: MDCK-MDR1
[1] = Kinetic solubility assay (CLND), pH 6.8; format: physicochemical; details: aqueous buffer, kinetic from dmso stock; potassium phosphate buffer pH 6.8, 2% DMSO, 24 hours at ambient temperature

Sequence of IRAK4 (Q9NWZ3 whole entry): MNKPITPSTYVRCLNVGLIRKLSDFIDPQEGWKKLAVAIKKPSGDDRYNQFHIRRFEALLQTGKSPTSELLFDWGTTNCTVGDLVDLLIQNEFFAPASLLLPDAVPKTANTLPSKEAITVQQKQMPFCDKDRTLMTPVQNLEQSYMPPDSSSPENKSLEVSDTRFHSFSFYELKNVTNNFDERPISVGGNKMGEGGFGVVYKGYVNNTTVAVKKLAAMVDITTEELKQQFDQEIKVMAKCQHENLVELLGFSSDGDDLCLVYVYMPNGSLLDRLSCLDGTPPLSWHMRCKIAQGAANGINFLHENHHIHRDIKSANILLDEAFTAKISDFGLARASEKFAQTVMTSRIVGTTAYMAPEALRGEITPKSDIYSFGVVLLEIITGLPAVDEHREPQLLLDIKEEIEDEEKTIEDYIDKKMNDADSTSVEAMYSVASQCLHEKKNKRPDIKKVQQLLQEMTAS
Sequence of MDR1 (P08183 whole entry): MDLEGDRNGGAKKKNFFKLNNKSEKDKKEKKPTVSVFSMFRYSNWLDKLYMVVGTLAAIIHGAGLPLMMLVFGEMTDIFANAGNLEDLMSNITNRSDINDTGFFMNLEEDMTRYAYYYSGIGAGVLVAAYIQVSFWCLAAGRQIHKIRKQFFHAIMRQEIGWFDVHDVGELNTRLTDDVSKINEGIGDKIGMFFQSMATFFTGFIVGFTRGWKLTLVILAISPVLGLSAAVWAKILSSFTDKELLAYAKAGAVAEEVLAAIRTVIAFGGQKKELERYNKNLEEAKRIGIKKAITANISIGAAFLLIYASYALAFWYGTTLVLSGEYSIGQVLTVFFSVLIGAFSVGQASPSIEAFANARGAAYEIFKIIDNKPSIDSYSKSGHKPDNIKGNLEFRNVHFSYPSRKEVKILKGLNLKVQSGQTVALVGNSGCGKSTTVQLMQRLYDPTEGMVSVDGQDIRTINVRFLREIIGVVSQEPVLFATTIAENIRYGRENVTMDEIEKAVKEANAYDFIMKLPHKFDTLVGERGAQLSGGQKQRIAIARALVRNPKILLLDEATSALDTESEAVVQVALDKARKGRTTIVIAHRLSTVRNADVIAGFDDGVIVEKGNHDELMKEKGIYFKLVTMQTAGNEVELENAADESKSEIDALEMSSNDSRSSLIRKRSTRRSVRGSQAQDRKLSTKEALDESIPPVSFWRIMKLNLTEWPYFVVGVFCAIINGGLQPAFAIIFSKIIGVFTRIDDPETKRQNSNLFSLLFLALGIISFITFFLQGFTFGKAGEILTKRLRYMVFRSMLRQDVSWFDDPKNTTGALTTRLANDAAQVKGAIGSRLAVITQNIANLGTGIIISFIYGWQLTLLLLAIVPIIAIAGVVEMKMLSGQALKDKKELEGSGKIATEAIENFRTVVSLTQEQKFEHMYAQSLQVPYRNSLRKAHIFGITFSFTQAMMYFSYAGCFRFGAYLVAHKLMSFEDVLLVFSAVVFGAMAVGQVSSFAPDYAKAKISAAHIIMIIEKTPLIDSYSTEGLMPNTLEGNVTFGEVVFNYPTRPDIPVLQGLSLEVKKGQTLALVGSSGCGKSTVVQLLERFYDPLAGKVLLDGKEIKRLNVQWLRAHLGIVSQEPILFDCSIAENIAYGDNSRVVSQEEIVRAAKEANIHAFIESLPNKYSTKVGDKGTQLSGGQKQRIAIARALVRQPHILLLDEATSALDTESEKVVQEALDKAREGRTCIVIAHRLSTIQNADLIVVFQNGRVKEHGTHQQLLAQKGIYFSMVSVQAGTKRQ

SMILES | IC50 (IRAK4) [nM] | efflux ratio at 120 min, 1 μM (MDR1) | solubility kinetic at 24 h [1] [µg/mL]
CC[C@@H](C)Oc1nc2nc(C34COC(C)(C3)C4)cn2cc1C(=O)Nc1cccn([C@@H]2C[C@@H]2F)c1=O (mixture of isomers) [Example 41, 7-((R)-sec-butoxy)-N-(1-(cis-2-fluorocyclopropyl)-2-oxo-1,2-dihydropyridin-3-yl)-2-(1-methyl-2-oxabicyclo[2.1.1]hexan-4-yl)imidazo[1,2-a]pyrimidine-6-carboxamide] | 0.6 | 9.1 | 
CC[C@H](C)Oc1nc2nc(C34COC(C)(C3)C4)cn2cc1C(=O)Nc1cccn([C@@H]2C[C@@H]2F)c1=O (mixture of isomers) [Example 42, 7-((S)-sec-butoxy)-N-(1-(cis-2-fluorocyclopropyl)-2-oxo-1,2-dihydropyridin-3-yl)-2-(1-methyl-2-oxabicyclo[2.1.1]hexan-4-yl)imidazo[1,2-a]pyrimidine-6-carboxamide] |  | 10.8 | 72.5
CC[C@H](C)Oc1cc2nc(C34COC(C)(C3)C4)cn2cc1C(=O)Nc1cccn(C2CC2F)c1=O (mixture of isomers) [Example 96, 7-((S)-sec-butoxy)-N-(1-cis-(2-fluorocyclopropyl)-2-oxo-1,2-dihydropyridin-3-yl)-2-(1-methyl-2-oxabicyclo[2.1.1]hexan-4-yl)imidazo[1,2-a]pyridine-6-carboxamide] |  | 10.4 | 75.7
CC(C)Oc1cc2nc([C@@]34CC[C@@](C)(C3)OC4)cn2cc1C(=O)Nc1cccn(C2CC2F)c1=O (mixture of isomers) [Example 99, N-(1-(2-fluorocyclopropyl)-2-oxo-1,2-dihydropyridin-3-yl)-7-isopropoxy-2-((1S,4R)-1-methyl-2-oxabicyclo[2.2.1]heptan-4-yl)imidazo[1,2-a]pyridine-6-carboxamide] | 0.4 |  | 62
CC(C)Oc1c(C(=O)Nc2cccn([C@@H]3C[C@@H]3F)c2=O)cn2cc(C34COC(C)(C3)C4)nc2c1F (racemic) [Example 91, (rac)-Cis-8-fluoro-N-(1-(2-fluorocyclopropyl)-2-oxo-1,2-dihydropyridin-3-yl)-7-isopropoxy-2-(1-methyl-2-oxabicyclo[2.1.1]hexan-4-yl)imidazo[1,2-a]pyridine-6-carboxamide] | 0.8 | 5.1 | 
CC(C)Oc1cc2nc([C@]34CC[C@](C)(C3)OC4)cn2cc1C(=O)Nc1cccc(C(F)F)n1 (single isomer, unassigned) [Comparator 3A, reference compound] |  | 0.7 | 0.8 (≈ 1.75 µM)
Cc1cnc2c(NC(=O)c3cn4cc([C@@]56CC[C@@](C)(C5)OC6)nc4nc3OC(C)C)cnn2c1 (single isomer, unassigned) [Comparator 4B, reference compound] |  | 2.3 | 2 (≈ 4.33 µM)
CC[C@@H](C)Oc1nc2nc(C34COC(C)(C3)C4)cn2cc1C(=O)Nc1cccn([C@@H]2C[C@@H]2F)c1=O (single isomer, unassigned) [Example 57] | 23 | 7.9 | 
CC[C@H](C)Oc1nc2nc(C34COC(C)(C3)C4)cn2cc1C(=O)Nc1cccn([C@@H]2C[C@@H]2F)c1=O (single isomer, unassigned) [Example 59] | 9 | 9.4 | 
CC(C)Oc1nc2nc(C34COC(C)(C3)C4)cn2cc1C(=O)Nc1cccn([C@@H]2CC2(C)C)c1=O (single isomer, unassigned) [Example 78] | 11 | 2.1 | 
CC(C)Oc1c(C(=O)Nc2cccn([C@@H]3C[C@@H]3F)c2=O)cn2cc(C34COC(C)(C3)C4)nc2c1F (single isomer, unassigned) [Example 92] | 61 |  | 
CC(C)Oc1nc2nc([C@H]3CCCOC3)cn2cc1C(=O)Nc1cccn(C2CC2)c1=O (single isomer, unassigned) [Example 107] | 0.3 | 3 | 
CC(C)Oc1nc2nc(C[C@H]3CCOC3)cn2cc1C(=O)Nc1cccn(C2CC2)c1=O (single isomer, unassigned) [Example 110] | 0.5 | 7 | 
CC(C)Oc1c(C(=O)Nc2cccn([C@@H]3C[C@@H]3F)c2=O)cn2cc([C@@]34CC[C@@](C)(C3)OC4)nc2c1F (single isomer, unassigned) [Example 124] | 45.5 |  | 
CC(C)Oc1c(C(=O)Nc2cccn([C@H]3C[C@H]3F)c2=O)cn2cc([C@@]34CC[C@@](C)(C3)OC4)nc2c1F (single isomer, unassigned) [Example 125] | 0.5 |  | 39.9 (≈ 80 µM)
CC(C)Oc1c(C(=O)Nc2cccn([C@@H]3C[C@@H]3F)c2=O)cn2cc([C@]34CC[C@](C)(C3)OC4)nc2c1F (single isomer, unassigned) [Example 126] | 66.5 | 4.4 | 
CO[C@@H]1C[C@H]1n1cccc(NC(=O)c2cn3cc(C45COC(C)(C4)C5)nc3nc2OC(C)C)c1=O (single isomer, unassigned) [Example 137] | 1.4 | 4.8 | 

SMILES | IC50 (IRAK4) [nM] | efflux ratio at 120 min, 1 μM (MDR1) | solubility kinetic at 24 h [1] [µg/mL]
CC(C)Oc1nc2nc([C@]34CC[C@](C)(C3)OC4)cn2cc1C(=O)Nc1cccn([C@@H]2C[C@H]2C)c1=O (single isomer, unassigned) [Example 141] | 0.4 |  | 43.2 (≈ 90.5 µM)
CC(C)Oc1nc2nc([C@]34CC[C@](C)(C3)OC4)cn2cc1C(=O)Nc1cccn([C@H]2C[C@@H]2C)c1=O (single isomer, unassigned) [Example 142] | 1.2 |  | 37 (≈ 77.5 µM)
CC[C@H](C)Oc1cc2nc(C34COC(C)(C3)C4)cn2cc1C(=O)Nc1cccn([C@@H]2C[C@@H]2F)c1=O (single isomer, unassigned) [Example 160] | 3.1 |  | 
CC(C)Oc1cc2nc([C@@]34CC[C@@](C)(C3)OC4)cn2cc1C(=O)Nc1cccn([C@@H]2C[C@@H]2F)c1=O (single isomer, unassigned) [Example 168] | 7.5 |  | 
CC(C)Oc1cc2nc([C@]34CC[C@](C)(C3)OC4)cn2cc1C(=O)Nc1cccn([C@@H]2C[C@@H]2F)c1=O (single isomer, unassigned) [Example 170] | 9.4 |  | 
CC12CC(c3cn4cc(C(=O)Nc5cccn([C@@H]6C[C@@H]6F)c5=O)c(OC5CCC5)cc4n3)(CO1)C2 (single isomer, unassigned) [Example 172] | 27 |  | 
CC12CC(c3cn4cc(C(=O)Nc5cccn([C@@H]6C[C@@H]6F)c5=O)c(OC5CC5)cc4n3)(CO1)C2 (single isomer, unassigned) [Example 174] | 37.5 |  | 
CC(C)Oc1nc2nc(C34CCC(C)(CC3)OC4)cn2cc1C(=O)Nc1cccc(C(F)F)n1 [Comparator 5A, N-(6-(difluoromethyl)pyridin-2-yl)-7-isopropoxy-2-(1-methyl-2-oxabicyclo[2.2.2]octan-4-yl)imidazo[1,2-a]pyrimidine-6-carboxamide, reference compound] |  | 1 | 1.5 (≈ 3.18 µM)
Cc1cnc2c(NC(=O)c3cn4cc(C56CCC(C)(CC5)OC6)nc4cc3OC(C)C)cnn2c1 [Comparator 5B, 7-isopropoxy-2-(1-methyl-2-oxabicyclo[2.2.2]octan-4-yl)-N-(6-methylpyrazolo[1,5-a]pyrimidin-3-yl)imidazo[1,2-a]pyridine-6-carboxamide, reference compound] |  | 1.4 | 5.2 (≈ 11 µM)
CC(C)Oc1nc2nc(C34CCC(CF)(C3)OC4)cn2cc1C(=O)Nc1cccn(C2CC2)c1=O (centres unmarked) [Example 45, N-(1-cyclopropyl-2-oxo-1,2-dihydropyridin-3-yl)-2-(1-(fluoromethyl)-2-oxabicyclo[2.2.1]heptan-4-yl)-7-isopropoxyimidazo[1,2-a]pyrimidine-6-carboxamide] |  |  | 6.8 (≈ 14.1 µM)
CC(C)Oc1nc2nc(C34COC(C)(C3)C4)cn2cc1C(=O)Nc1ccnn(C2CC2)c1=O [Example 71, N-(2-cyclopropyl-3-oxo-2,3-dihydropyridazin-4-yl)-7-isopropoxy-2-(1-methyl-2-oxabicyclo[2.1.1]hexan-4-yl)imidazo[1,2-a]pyrimidine-6-carboxamide] |  |  | 8.9 (≈ 19.8 µM)
CC(C)Oc1cc2nc(C34COC(C)(C3)C4)cn2cc1C(=O)Nc1ccnn(C2CC2)c1=O [Example 76] |  | 3.6 | 50.9 (≈ 113 µM)
CC(C)Oc1cc2nc(C34COC(C)(C3)C4)cn2cc1C(=O)Nc1cccn([C@H]2C[C@@H]2C)c1=O [Example 140, 7-isopropoxy-2-(1-methyl-2-oxabicyclo[2.1.1]hexan-4-yl)-N-(1-((1S,2S)-2-methylcyclopropyl)-2-oxo-1,2-dihydropyridin-3-yl)imidazo[1,2-a]pyridine-6-carboxamide] | 1.1 |  | 
CC(C)Oc1nc2nc(C34COC(C)(C3)C4)cn2cc1C(=O)Nc1cccn(C2C[C@]2(C)C(F)F)c1=O (stereo partly drawn) [Example 144, N-(1-((1S,2S)-2-(difluoromethyl)-2-methylcyclopropyl)-2-oxo-1,2-dihydropyridin-3-yl)-7-isopropoxy-2-(1-methyl-2-oxabicyclo[2.1.1]hexan-4-yl)imidazo[1,2-a]pyrimidine-6-carboxamide] |  |  | 34.4 (≈ 67 µM)
COCC12CC(c3cn4cc(C(=O)Nc5cccn([C@@H]6C[C@@H]6F)c5=O)c(OC(C)C)nc4n3)(CO1)C2 [Example 162, N-(1-((1R,2S)-2-fluorocyclopropyl)-2-oxo-1,2-dihydropyridin-3-yl)-7-isopropoxy-2-(1-(methoxymethyl)-2-oxabicyclo[2.1.1]hexan-4-yl)imidazo[1,2-a]pyrimidine-6-carboxamide] |  | 38.2 | 
COCC12CC(c3cn4cc(C(=O)Nc5cccn([C@H]6C[C@H]6F)c5=O)c(OC(C)C)nc4n3)(CO1)C2 [Example 163, N-(1-((1S,2R)-2-fluorocyclopropyl)-2-oxo-1,2-dihydropyridin-3-yl)-7-isopropoxy-2-(1-(methoxymethyl)-2-oxabicyclo[2.1.1]hexan-4-yl)imidazo[1,2-a]pyrimidine-6-carboxamide] |  |  | 66 (≈ 133 µM)
